Values of other authors, collected in US20130324508A1, “BIOMARKER FOR PROSTATE CANCER AND METHOD OF USING THE SAME” (UNIVERSITY OF TENNESSEE RESEARCH FOUNDATION, priority 2012, published 2013).

Assays:
PC-3 = conditions: androgen-independent PC-3 cells; cited from earlier work
DU145 = conditions: androgen-independent DU145 cells; cited from earlier work
LNCaP = conditions: androgen-dependent LNCaP cells; cited from earlier work

C[N+](C)(C)CCOC(N)=O [carbachol]
ERK phosphorylation (PC-3): ERK phosphorylation is noted | ERK phosphorylation (DU145): ERK phosphorylation is noted | ERK phosphorylation (LNCaP): not
